Active and inactive are the calls of the source. How the calls were made is not given here.
What was measured:
Assay in all cases: ABHD10 inhibitor ABPP-SILAC selectivity profile – cell-based, LC-MS/MS, selectivity assay for PME-1 inhibitor project, late-stage follow-up (AID 588805)
[1] = system: Ache; settings: serine hydrolase panel, hits give low values
[2] = system: Pme1; settings: serine hydrolase panel, hits give low values
[3] = system: Pnpla8; settings: serine hydrolase panel, hits give low values
[4] = system: Sec23ip; settings: serine hydrolase panel, hits give low values
[5] = system: Pla2g6; settings: serine hydrolase panel, hits give low values
[6] = system: Fam108b1; settings: serine hydrolase panel, hits give low values
[7] = system: Prepl; settings: serine hydrolase panel, hits give low values
[8] = system: Dpp8; settings: serine hydrolase panel, hits give low values
[9] = system: Abhd13; settings: serine hydrolase panel, hits give low values
[10] = target: Palmitoyl-protein thioesterase ABHD10, mitochondrial (Mus musculus) (UniProt Q6PE15); settings: serine hydrolase panel, hits give low values
[11] = system: Serhl; settings: serine hydrolase panel, hits give low values
[12] = system: Nceh1; settings: serine hydrolase panel, hits give low values
[13] = system: Acot9; settings: serine hydrolase panel, hits give low values
[14] = system: Pnpla7; settings: serine hydrolase panel, hits give low values
[15] = system: Lipe; settings: serine hydrolase panel, hits give low values
[16] = system: Abhd12; settings: serine hydrolase panel, hits give low values
[17] = system: Bat5; settings: serine hydrolase panel, hits give low values
[18] = system: Acot2; settings: serine hydrolase panel, hits give low values
[19] = system: Pla2g15; settings: serine hydrolase panel, hits give low values
[20] = system: Fam108c1; settings: serine hydrolase panel, hits give low values
[21] = system: Rbbp9; settings: serine hydrolase panel, hits give low values
[22] = system: Qrsl1; settings: serine hydrolase panel, hits give low values
[23] = system: Fam108a; settings: serine hydrolase panel, hits give low values
[24] = system: Pafah1b3; settings: serine hydrolase panel, hits give low values
[25] = target: Platelet-activating factor acetylhydrolase 2, cytoplasmic (Mus musculus) (UniProt Q8VDG7); settings: serine hydrolase panel, Pafah2, hits give low values
[26] = system: Acot7; settings: serine hydrolase panel, hits give low values
[27] = system: Prcp; settings: serine hydrolase panel, hits give low values
[28] = system: Ppt2; settings: serine hydrolase panel, hits give low values
[29] = system: Ddhd2; settings: serine hydrolase panel, hits give low values
[30] = system: Ctsa; settings: serine hydrolase panel, hits give low values
[31] = system: Lypla2; settings: serine hydrolase panel, hits give low values
[32] = target: Prolyl endopeptidase (Mus musculus) (UniProt Q9QUR6); settings: serine hydrolase panel, Prep, hits give low values
[33] = system: Dpp7; settings: serine hydrolase panel, hits give low values
[34] = target: Monoacylglycerol lipase ABHD6 (Mus musculus) (UniProt Q8R2Y0); settings: serine hydrolase panel, hits give low values
[35] = system: Pnpla6; settings: serine hydrolase panel, hits give low values
[36] = system: Pafah1b2; settings: serine hydrolase panel, hits give low values
[37] = system: Htra2; settings: serine hydrolase panel, hits give low values
[38] = system: Esd; settings: serine hydrolase panel, hits give low values
[39] = system: Faah; settings: serine hydrolase panel, hits give low values
[40] = system: Pgap1; settings: serine hydrolase panel, hits give low values
[41] = system: Iah1; settings: serine hydrolase panel, hits give low values
[42] = system: Fasn; settings: serine hydrolase panel, hits give low values
[43] = system: Lactb; settings: serine hydrolase panel, hits give low values
[44] = system: Parl; settings: serine hydrolase panel, hits give low values
[45] = system: Abhd11; settings: serine hydrolase panel, hits give low values
[46] = target: Diacylglycerol lipase-beta (Mus musculus) (UniProt Q91WC9); settings: serine hydrolase panel, Daglb, hits give low values
[47] = system: Lyplal1; settings: serine hydrolase panel, hits give low values
[48] = target: Acyl-protein thioesterase 1 (Mus musculus) (UniProt P97823); settings: serine hydrolase panel, Lypla1, hits give low values
[49] = system: Apeh; settings: serine hydrolase panel, hits give low values
[50] = system: Dpp9; settings: serine hydrolase panel, hits give low values

Monoacylglycerol lipase ABHD6 (Mus musculus), sequence (Q8R2Y0 whole entry, looked up): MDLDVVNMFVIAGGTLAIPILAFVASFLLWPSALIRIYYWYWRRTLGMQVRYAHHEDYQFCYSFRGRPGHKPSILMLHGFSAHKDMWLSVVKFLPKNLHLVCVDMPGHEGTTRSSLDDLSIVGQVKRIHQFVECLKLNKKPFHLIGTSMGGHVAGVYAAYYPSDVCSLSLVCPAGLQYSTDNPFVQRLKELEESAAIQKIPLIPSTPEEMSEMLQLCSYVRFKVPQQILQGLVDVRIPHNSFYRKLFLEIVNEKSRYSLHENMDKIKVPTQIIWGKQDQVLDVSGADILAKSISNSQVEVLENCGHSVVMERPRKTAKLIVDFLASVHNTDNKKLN
Diacylglycerol lipase-beta (Mus musculus), sequence (Q91WC9 whole entry, looked up): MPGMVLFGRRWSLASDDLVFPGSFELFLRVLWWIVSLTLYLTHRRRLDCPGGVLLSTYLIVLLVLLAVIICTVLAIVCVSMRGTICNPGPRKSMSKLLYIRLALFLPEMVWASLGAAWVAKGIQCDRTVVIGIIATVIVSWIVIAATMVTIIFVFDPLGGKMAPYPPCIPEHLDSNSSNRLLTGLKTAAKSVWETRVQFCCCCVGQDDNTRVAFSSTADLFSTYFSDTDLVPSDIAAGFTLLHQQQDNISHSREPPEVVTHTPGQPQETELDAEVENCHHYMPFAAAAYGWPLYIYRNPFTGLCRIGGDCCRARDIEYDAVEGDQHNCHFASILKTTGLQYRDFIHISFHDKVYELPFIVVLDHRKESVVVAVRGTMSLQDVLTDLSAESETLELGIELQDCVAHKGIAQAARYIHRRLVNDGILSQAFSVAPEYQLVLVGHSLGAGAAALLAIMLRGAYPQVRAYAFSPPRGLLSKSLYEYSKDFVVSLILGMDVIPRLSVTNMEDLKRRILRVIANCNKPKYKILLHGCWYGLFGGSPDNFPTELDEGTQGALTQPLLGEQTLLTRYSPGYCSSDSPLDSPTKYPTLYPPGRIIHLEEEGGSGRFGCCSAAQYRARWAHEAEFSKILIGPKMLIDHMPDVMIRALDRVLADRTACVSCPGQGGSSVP
Acyl-protein thioesterase 1 (Mus musculus), sequence (P97823 whole entry, looked up): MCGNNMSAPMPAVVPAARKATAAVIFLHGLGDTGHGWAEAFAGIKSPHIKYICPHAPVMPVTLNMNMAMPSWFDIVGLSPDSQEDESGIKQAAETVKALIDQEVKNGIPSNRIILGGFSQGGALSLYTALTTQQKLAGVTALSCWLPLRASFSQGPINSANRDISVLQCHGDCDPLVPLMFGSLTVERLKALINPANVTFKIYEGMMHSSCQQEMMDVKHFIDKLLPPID
Prolyl endopeptidase (Mus musculus), sequence (Q9QUR6 whole entry, looked up): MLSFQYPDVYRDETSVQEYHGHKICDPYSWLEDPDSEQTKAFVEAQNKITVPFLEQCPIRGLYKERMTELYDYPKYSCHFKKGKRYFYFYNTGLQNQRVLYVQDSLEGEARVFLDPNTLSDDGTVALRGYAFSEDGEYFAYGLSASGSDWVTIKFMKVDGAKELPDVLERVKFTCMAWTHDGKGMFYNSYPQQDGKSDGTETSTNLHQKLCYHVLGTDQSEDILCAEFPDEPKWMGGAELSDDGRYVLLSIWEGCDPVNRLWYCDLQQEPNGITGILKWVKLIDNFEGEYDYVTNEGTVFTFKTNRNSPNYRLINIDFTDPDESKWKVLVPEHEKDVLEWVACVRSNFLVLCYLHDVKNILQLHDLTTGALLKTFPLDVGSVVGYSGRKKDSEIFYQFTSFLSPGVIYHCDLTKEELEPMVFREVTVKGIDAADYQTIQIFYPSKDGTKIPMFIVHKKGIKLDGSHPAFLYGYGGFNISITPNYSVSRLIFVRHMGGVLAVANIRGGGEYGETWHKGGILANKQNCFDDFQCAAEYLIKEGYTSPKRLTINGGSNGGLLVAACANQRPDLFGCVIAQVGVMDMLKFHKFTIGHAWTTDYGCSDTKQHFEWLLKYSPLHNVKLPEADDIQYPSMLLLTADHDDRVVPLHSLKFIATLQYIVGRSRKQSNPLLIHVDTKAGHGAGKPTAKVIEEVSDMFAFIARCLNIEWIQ
Platelet-activating factor acetylhydrolase 2, cytoplasmic (Mus musculus), sequence (Q8VDG7 whole entry, looked up): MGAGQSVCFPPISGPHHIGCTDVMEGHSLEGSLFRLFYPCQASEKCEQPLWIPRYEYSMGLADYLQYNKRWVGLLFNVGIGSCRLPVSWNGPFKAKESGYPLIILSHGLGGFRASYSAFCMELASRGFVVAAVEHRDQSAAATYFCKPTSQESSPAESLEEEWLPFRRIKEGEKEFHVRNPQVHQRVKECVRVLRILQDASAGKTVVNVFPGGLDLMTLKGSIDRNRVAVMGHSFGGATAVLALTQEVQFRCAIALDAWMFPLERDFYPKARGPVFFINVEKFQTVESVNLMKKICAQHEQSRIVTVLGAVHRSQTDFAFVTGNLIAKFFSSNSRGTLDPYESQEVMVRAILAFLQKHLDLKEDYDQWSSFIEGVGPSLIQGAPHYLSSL
Palmitoyl-protein thioesterase ABHD10, mitochondrial (Mus musculus), sequence (Q6PE15 whole entry, looked up): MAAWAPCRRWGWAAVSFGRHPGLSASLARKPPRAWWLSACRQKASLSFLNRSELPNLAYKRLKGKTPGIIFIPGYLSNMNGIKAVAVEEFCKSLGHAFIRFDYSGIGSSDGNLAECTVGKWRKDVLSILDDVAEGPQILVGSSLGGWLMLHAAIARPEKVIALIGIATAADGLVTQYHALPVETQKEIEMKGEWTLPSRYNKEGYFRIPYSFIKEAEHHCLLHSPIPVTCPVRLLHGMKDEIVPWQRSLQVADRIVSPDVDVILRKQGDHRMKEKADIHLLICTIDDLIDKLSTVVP

CC[C@@]1(c2ccc(C)cc2)C(=O)N(C(=O)OC(C)C)N1C(=O)OC(C)C
SILAC ratio (treated/control) [1]: 0.9 (inactive)
SILAC ratio (treated/control) [2]: 1.06 (inactive)
SILAC ratio (treated/control) [3]: 0.97 (inactive)
SILAC ratio (treated/control) [4]: 1.17 (inactive)
SILAC ratio (treated/control) [5]: 1.06 (inactive)
SILAC ratio (treated/control) [6]: 1.05 (inactive)
SILAC ratio (treated/control) [7]: 1.05 (inactive)
SILAC ratio (treated/control) [8]: 1.48 (inactive)
SILAC ratio (treated/control) [9]: 0.84 (inactive)
SILAC ratio (treated/control) [10]: 0.02
SILAC ratio (treated/control) [11]: 0.9 (inactive)
SILAC ratio (treated/control) [12]: 1.03 (inactive)
SILAC ratio (treated/control) [13]: 1.1 (inactive)
SILAC ratio (treated/control) [14]: 1.01 (inactive)
SILAC ratio (treated/control) [15]: 1.13 (inactive)
SILAC ratio (treated/control) [16]: 0.9 (inactive)
SILAC ratio (treated/control) [17]: 1.02 (inactive)
SILAC ratio (treated/control) [18]: 1 (inactive)
SILAC ratio (treated/control) [19]: 1 (inactive)
SILAC ratio (treated/control) [20]: 0.93 (inactive)
SILAC ratio (treated/control) [21]: 1.07 (inactive)
SILAC ratio (treated/control) [22]: 0.96 (inactive)
SILAC ratio (treated/control) [23]: 1.16 (inactive)
SILAC ratio (treated/control) [24]: 1.06 (inactive)
SILAC ratio (treated/control) [25]: 1.06 (inactive)
SILAC ratio (treated/control) [26]: 1.05 (inactive)
SILAC ratio (treated/control) [27]: 0.94 (inactive)
SILAC ratio (treated/control) [28]: 1.04 (inactive)
SILAC ratio (treated/control) [29]: 0.99 (inactive)
SILAC ratio (treated/control) [30]: 0.81 (inactive)
SILAC ratio (treated/control) [31]: 1.07 (inactive)
SILAC ratio (treated/control) [32]: 1.01 (inactive)
SILAC ratio (treated/control) [33]: 0.97 (inactive)
SILAC ratio (treated/control) [34]: 0.87 (inactive)
SILAC ratio (treated/control) [35]: 1.32 (inactive)
SILAC ratio (treated/control) [36]: 1.06 (inactive)
SILAC ratio (treated/control) [37]: 0.98 (inactive)
SILAC ratio (treated/control) [38]: 1.04 (inactive)
SILAC ratio (treated/control) [39]: 0.94 (inactive)
SILAC ratio (treated/control) [40]: 0.92 (inactive)
SILAC ratio (treated/control) [41]: 0.95 (inactive)
SILAC ratio (treated/control) [42]: 1.1 (inactive)
SILAC ratio (treated/control) [43]: 0.85 (inactive)
SILAC ratio (treated/control) [44]: 0.96 (inactive)
SILAC ratio (treated/control) [45]: 1 (inactive)
SILAC ratio (treated/control) [46]: 0.96 (inactive)
SILAC ratio (treated/control) [47]: 1.06 (inactive)
SILAC ratio (treated/control) [48]: 1.14 (inactive)
SILAC ratio (treated/control) [49]: 1.07 (inactive)
SILAC ratio (treated/control) [50]: 1.08 (inactive)

Source: PubChem BioAssay AID588805 (The Scripps Research Institute Molecular Screening Center, 2011)
